Experiments:
11βHSD2 [1] = target: T1, 11βHSD2 (Homo sapiens, UniProt P80365); assay: Directionality and end product inhibition in intact pHSD2 transfected CHOP cells; format: cell-based; conditions: monolayer cultures, 1.5 hours at 37° C., 1-2 nM labelled substrate, TLC
T1 construct: homogenates or intact cells
T1 sequence (P80365 1-405 V148L): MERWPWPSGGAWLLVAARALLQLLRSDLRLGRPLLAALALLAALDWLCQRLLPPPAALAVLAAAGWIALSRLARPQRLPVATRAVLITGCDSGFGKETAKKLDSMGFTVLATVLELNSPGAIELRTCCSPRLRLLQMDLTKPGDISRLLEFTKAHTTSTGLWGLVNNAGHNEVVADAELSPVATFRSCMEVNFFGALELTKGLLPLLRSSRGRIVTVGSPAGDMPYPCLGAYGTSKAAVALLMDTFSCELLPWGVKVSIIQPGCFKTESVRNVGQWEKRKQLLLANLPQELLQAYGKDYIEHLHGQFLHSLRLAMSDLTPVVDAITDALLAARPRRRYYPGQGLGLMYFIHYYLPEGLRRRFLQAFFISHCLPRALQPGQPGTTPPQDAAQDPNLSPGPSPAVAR
Description: To determine directionality and extent of end production inhibition of the enzyme encoded by pHSD2, monolayer cultures of transfected CHOP cells were incubated for 1.5 hours at 37° C. with 1-2 nM labelled substrates plus 10 nM corresponding unlabelled 11-dehydro metabolite (FIG. 2b). The culture medium was then removed, extracted and assayed by TLC for the presence of the 11-dehydro metabolite.
Dehydrogenase activity was also estimated in the presence of an excess of the respective 11-dehydro metabolite (FIG. 2b, III).

11βHSD2 [2] = target: T1, 11βHSD2; assay: Km determination in homogenates of pHSD2 transfected CHOP cells; format: biochemical; conditions: double reciprocal plot, 37° C., mean±SD, n=3
Source text: The efficiency of the dehydrogenase may be further increased by mechanisms such as intracellular compartmentalisation of the enzyme.

11βHSD2 [3] = target: T1, 11βHSD2; assay: Cofactor specificity of glucocorticoid metabolism in homogenates of pHSD2 transfected CHOP cells; format: biochemical; conditions: 1 mM NAD+ or 1 mM NADP+, 37° C. for 40 minutes, TLC
Description: CHOP cells were transfected with plasmid pHSD2, which contains an insert encoding 11βHSD2. After 60 hours incubation in 85 mm plates, cellular homogenates were prepared and assayed for their ability to metabolise glucocorticoid substrates in the presence of 1 mM NAD+, or 1 mM NADP+. Confluent cells were homogenised in 1 ml of homogenisation buffer (0.25 M sucrose, 10 MM phosphate, pH 7). Reaction mixtures (500 μl) contained either 40 μl of homogenate plus [^3 H]corticosterone, or 80 μl of homogenate plus [^3 H]cortisol, or 120 μl of homogenate plus [^3 H]dexamethasone, in homogenisation buffer. All reactions contained 1-2 nM tritiated glucocorticoid substrate plus 10 nM unlabelled glucocorticoid substrate. Reaction mixtures were incubated at 37° C. for 40 minutes and steroid metabolites were assayed by thin layer chromatography.

Row | Compound | metabolite formation by intact transfected CHOP cells (11βHSD2 [1]) | Km (11βHSD2 [2]) | glucocorticoid metabolism to 11-dehydro metabolite, cofactor dependence (11βHSD2 [3])
1 | C[C@]12CC(=O)[C@H]3[C@@H](CCC4=CC(=O)CC[C@@]43C)[C@@H]1CC[C@@H]2C(=O)CO [11-dehydro corticosterone] | no metabolite formed |  | 
2 | C[C@]12C[C@H](O)[C@H]3[C@@H](CCC4=CC(=O)CC[C@@]43C)[C@@H]1CC[C@@H]2C(=O)CO [corticosterone] | converted | 5.1 ± 1.2 nM | only showed significant glucocorticoid metabolism when NAD+, but not NADP+, was included as a cofactor
3 | C[C@@H]1C[C@H]2[C@@H]3CCC4=CC(=O)C=C[C@]4(C)[C@@]3(F)[C@@H](O)C[C@]2(C)[C@@]1(O)C(=O)CO [dexamethasone] |  |  | only showed significant glucocorticoid metabolism when NAD+, but not NADP+, was included as a cofactor
4 | C[C@]12CCC(=O)C=C1CC[C@@H]1[C@@H]2C(=O)C[C@@]2(C)[C@H]1CC[C@]2(O)C(=O)CO [cortisone] | no metabolite formed |  | 
5 | C[C@]12CCC(=O)C=C1CC[C@@H]1[C@@H]2[C@@H](O)C[C@@]2(C)[C@H]1CC[C@]2(O)C(=O)CO [cortisol] | converted |  | only showed significant glucocorticoid metabolism when NAD+, but not NADP+, was included as a cofactor

Source: patent US5965372A, “Genetic sequences encoding glucocorticoid dehydrogenases and uses thereof” (Baker Medical Research Institute, priority 1996, dated 1999)
